Test results from the supplement of paper PMC4862054.

Experiments:
Conditions in all cases: incubation time: 72 h
CAL-120 [1] = assay: normalised viability (% of control), CellTiter-Blue; higher = more viable cells (about 100 = DMSO control)
Protocol: (§1)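 DSRT, CellTiter-Blue viability, 72 h incubation. Signal is normalised to DMSO and benzethonium chloride controls. Value is the normalised response at dose 3.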

MDA-MB-231 [2] = assay: as above
Protocol: as §1

DU-4475 = assay: as above
Protocol: as §1

HCC1143 [3] = assay: as above
Protocol: as §1

CAL-148 [4] = assay: as above
Protocol: as §1

CAL-85-1 [5] = assay: as above
Protocol: as §1

MDA-MB-453 [6] = assay: as above
Protocol: as §1

HDQ-P1 = assay: as above
Protocol: as §1

Hs578T = assay: as above
Protocol: as §1

BT-549 = assay: as above
Protocol: as §1

MDA-MB-468 = assay: as above
Protocol: as §1

MDA-MB-436 = assay: as above
Protocol: as §1

HCC1937 = assay: as above
Protocol: as §1

CAL-51 = assay: as above
Protocol: as §1

SK-BR-3 = assay: as above
Protocol: as §1

HCC1599 = assay: as above
Protocol: as §1

BT-474 = assay: as above
Protocol: as §1

MFM-223 = assay: as above
Protocol: as §1

CAL-120 [7] = assay: drug sensitivity score (DSS), CellTox Green (DSS (AUC-based score)); higher = stronger drug effect (viability inhibition or cytotoxicity); extreme values may be limits of the assay
Outline: (§2)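 The area under the fitted dose-response curve was used to calculate the drug sensitivity score. Cells from breast cancer lines were incubated for 72 h in 384-well plates with compound at 5 concentrations spaced 10-fold over a 10,000-fold range specific to each compound. Plates were read for CellTox Green and then CellTiter-Glo, and normalised to 0.1 % DMSO and a positive kill control.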

MDA-MB-231 [8] = assay: as above
Outline: as §2

HCC1143 [9] = assay: as above
Outline: as §2

CAL-148 [10] = assay: as above
Outline: as §2

CAL-85-1 [11] = assay: as above
Outline: as §2

MDA-MB-453 [12] = assay: as above
Outline: as §2

SMILES	normalised viability (CAL-120 [1]; 10 nM)	normalised viability (MDA-MB-231 [2]; 10 nM)	normalised viability (DU-4475; 1 nM)	normalised viability (HCC1143 [3]; 10 nM)	normalised viability (CAL-148 [4]; 1 nM)	normalised viability (CAL-85-1 [5]; 1 nM)	normalised viability (MDA-MB-453 [6]; 1 nM)	normalised viability (HDQ-P1; 1 nM)	normalised viability (Hs578T; 10 nM)	normalised viability (BT-549; 10 nM)	normalised viability (MDA-MB-468; 10 nM)	normalised viability (MDA-MB-436; 10 nM)	normalised viability (HCC1937; 10 nM)	normalised viability (CAL-51; 1 nM)	drug sensitivity score (CAL-120 [7])	drug sensitivity score (MDA-MB-231 [8])	drug sensitivity score (HCC1143 [9])	drug sensitivity score (CAL-148 [10])	drug sensitivity score (CAL-85-1 [11])	drug sensitivity score (MDA-MB-453 [12])	further results
COc1cc2c(N3CCN(C(=O)Nc4ccc(OC(C)C)cc4)CC3)ncnc2cc1OCCCN1CCCCC1 [Tandutinib]	110%	108%	107%	125%	98.1%	104%	110%	130%	94.5%	106%	108%	102%	98.4%	109%	0	0	0	0	0	0	normalised viability (SK-BR-3; 10 nM): 84.3%; normalised viability (HCC1599; 10 nM): 101%; normalised viability (BT-474; 10 nM): 123%; normalised viability (MFM-223; 10 nM): 102%
C[C@@H](C(=O)O)c1ccc(-c2ccccc2)c(F)c1 [Tarenflurbil]															0	0	0	0	0	0	normalised viability (CAL-120 [1]; 100 nM): 98.6%; normalised viability (MDA-MB-231 [2]; 100 nM): 90.8%; normalised viability (DU-4475; 10 nM): 114%; normalised viability (HCC1143 [3]; 100 nM): 98.8%; normalised viability (CAL-148 [4]; 10 nM): 90.2%; normalised viability (CAL-85-1 [5]; 10 nM): 91.5%; normalised viability (MDA-MB-453 [6]; 10 nM): 99.5%; normalised viability (HDQ-P1; 10 nM): 91.8%; normalised viability (Hs578T; 100 nM): 72.9%; normalised viability (BT-549; 100 nM): 103%; normalised viability (MDA-MB-468; 100 nM): 104%; normalised viability (MDA-MB-436; 100 nM): 122%; normalised viability (HCC1937; 100 nM): 109%; normalised viability (CAL-51; 10 nM): 118%; normalised viability (SK-BR-3; 100 nM): 84.8%; normalised viability (HCC1599; 100 nM): 103%; normalised viability (BT-474; 100 nM): 109%; normalised viability (MFM-223; 100 nM): 101%
Cn1nnc2c(C(N)=O)ncn2c1=O [Temozolomide]															0	0	0	0	0	0	normalised viability (CAL-120 [1]; 100 nM): 95.9%; normalised viability (MDA-MB-231 [2]; 100 nM): 104%; normalised viability (DU-4475; 10 nM): 124%; normalised viability (HCC1143 [3]; 100 nM): 85.4%; normalised viability (CAL-148 [4]; 10 nM): 90.4%; normalised viability (CAL-85-1 [5]; 10 nM): 102%; normalised viability (MDA-MB-453 [6]; 10 nM): 101%; normalised viability (HDQ-P1; 10 nM): 92.3%; normalised viability (Hs578T; 100 nM): 81.3%; normalised viability (BT-549; 100 nM): 83.6%; normalised viability (MDA-MB-468; 100 nM): 95.7%; normalised viability (MDA-MB-436; 100 nM): 94.5%; normalised viability (HCC1937; 100 nM): 100%; normalised viability (CAL-51; 10 nM): 98.5%; normalised viability (SK-BR-3; 100 nM): 96.2%; normalised viability (HCC1599; 100 nM): 115%; normalised viability (BT-474; 100 nM): 98.2%; normalised viability (MFM-223; 100 nM): 105%
CC[C@@H]1C(=O)N(C)c2cnc(Nc3ccc(C(=O)N[C@H]4CC[C@H](N5CCN(CC6CC6)CC5)CC4)cc3OC)nc2N1C(C)C [Volasertib]	48.5%	92.8%	124%	77.4%	98.3%	95.3%	104%	103%	97.3%	94.5%	83.8%	88.6%	70.6%	102%	0	3.33	14.8	0	8.26	0	normalised viability (SK-BR-3; 10 nM): 53.6%; normalised viability (HCC1599; 10 nM): 78.5%; normalised viability (BT-474; 10 nM): 55.8%; normalised viability (MFM-223; 10 nM): 51.1%
